From the NIST ThermoML archive (doi:10.1016/j.jct.2011.08.016)
± gives the expanded uncertainty stated by the source.

Test: xn = mol fraction of the nth substance listed
Details: Liquid, Vibrating tube method

CCCCCCCCCC [decane] + CCCCCCCC
Details | mass density [kg/m3]
323.15 K, 13000 kPa, x2 = 0.7736 | 698.56 ± 0.48
323.15 K, 13000 kPa, x2 = 0.9623 | 692.26 ± 0.49
323.15 K, 14000 kPa, x2 = 0.5314 | 706.56 ± 0.48
323.15 K, 14000 kPa, x2 = 0.7736 | 699.43 ± 0.49
323.15 K, 14000 kPa, x2 = 0.9623 | 693.16 ± 0.49
323.15 K, 15000 kPa, x2 = 0.5314 | 707.39 ± 0.49
323.15 K, 15000 kPa, x2 = 0.7736 | 700.3 ± 0.49
323.15 K, 15000 kPa, x2 = 0.9623 | 694.06 ± 0.5
323.15 K, 16000 kPa, x2 = 0.5314 | 708.22 ± 0.49
323.15 K, 16000 kPa, x2 = 0.7736 | 701.16 ± 0.5
323.15 K, 16000 kPa, x2 = 0.9623 | 694.94 ± 0.51
323.15 K, 17000 kPa, x2 = 0.5314 | 709.02 ± 0.5
323.15 K, 17000 kPa, x2 = 0.7736 | 702 ± 0.51
323.15 K, 17000 kPa, x2 = 0.9623 | 695.8 ± 0.51
323.15 K, 18000 kPa, x2 = 0.5314 | 709.85 ± 0.51
323.15 K, 18000 kPa, x2 = 0.7736 | 702.81 ± 0.51
323.15 K, 18000 kPa, x2 = 0.9623 | 696.65 ± 0.52
323.15 K, 19000 kPa, x2 = 0.5314 | 710.62 ± 0.51
323.15 K, 19000 kPa, x2 = 0.7736 | 703.6 ± 0.52
323.15 K, 19000 kPa, x2 = 0.9623 | 697.48 ± 0.53
323.15 K, 20000 kPa, x2 = 0.5314 | 711.38 ± 0.52
323.15 K, 20000 kPa, x2 = 0.7736 | 704.4 ± 0.53
323.15 K, 20000 kPa, x2 = 0.9623 | 698.3 ± 0.53
323.15 K, 21000 kPa, x2 = 0.5314 | 712.12 ± 0.52
323.15 K, 21000 kPa, x2 = 0.7736 | 705.18 ± 0.53
323.15 K, 21000 kPa, x2 = 0.9623 | 699.1 ± 0.54
323.15 K, 22000 kPa, x2 = 0.5314 | 712.85 ± 0.53
323.15 K, 22000 kPa, x2 = 0.7736 | 705.95 ± 0.54
323.15 K, 22000 kPa, x2 = 0.9623 | 699.83 ± 0.55
323.15 K, 23000 kPa, x2 = 0.5314 | 713.54 ± 0.54
323.15 K, 23000 kPa, x2 = 0.7736 | 706.68 ± 0.55
323.15 K, 23000 kPa, x2 = 0.9623 | 700.57 ± 0.55
323.15 K, 24000 kPa, x2 = 0.5314 | 714.24 ± 0.54
323.15 K, 24000 kPa, x2 = 0.7736 | 707.39 ± 0.55
323.15 K, 24000 kPa, x2 = 0.9623 | 701.31 ± 0.56
323.15 K, 25000 kPa, x2 = 0.5314 | 714.88 ± 0.55
323.15 K, 25000 kPa, x2 = 0.7736 | 708.08 ± 0.56
323.15 K, 25000 kPa, x2 = 0.9623 | 702 ± 0.57
323.19 K, 1000 kPa, x2 = 0.0616 | 706.61 ± 0.41
323.19 K, 2000 kPa, x2 = 0.0616 | 707.46 ± 0.42
323.19 K, 3000 kPa, x2 = 0.0616 | 708.43 ± 0.42
323.19 K, 4000 kPa, x2 = 0.0616 | 709.27 ± 0.42
323.19 K, 5000 kPa, x2 = 0.0616 | 710.19 ± 0.43
323.19 K, 6000 kPa, x2 = 0.0616 | 711.06 ± 0.43
323.19 K, 7000 kPa, x2 = 0.0616 | 711.94 ± 0.44
323.19 K, 8000 kPa, x2 = 0.0616 | 712.81 ± 0.44
323.19 K, 9000 kPa, x2 = 0.0616 | 713.68 ± 0.45
323.19 K, 10000 kPa, x2 = 0.0616 | 714.53 ± 0.45
323.19 K, 10990 kPa, x2 = 0.0616 | 715.36 ± 0.46
323.19 K, 12000 kPa, x2 = 0.0616 | 716.18 ± 0.46
323.19 K, 13000 kPa, x2 = 0.0616 | 716.99 ± 0.47
323.19 K, 14000 kPa, x2 = 0.0616 | 717.79 ± 0.47
323.19 K, 15000 kPa, x2 = 0.0616 | 718.57 ± 0.48
323.19 K, 16000 kPa, x2 = 0.0616 | 719.34 ± 0.48
323.19 K, 17000 kPa, x2 = 0.0616 | 720.12 ± 0.49
323.19 K, 18000 kPa, x2 = 0.0616 | 720.9 ± 0.49
323.19 K, 19000 kPa, x2 = 0.0616 | 721.64 ± 0.5
323.19 K, 20000 kPa, x2 = 0.0616 | 722.37 ± 0.51
323.19 K, 21000 kPa, x2 = 0.0616 | 723.09 ± 0.51
323.19 K, 22000 kPa, x2 = 0.0616 | 723.78 ± 0.52
323.19 K, 23000 kPa, x2 = 0.0616 | 724.44 ± 0.52
323.19 K, 24000 kPa, x2 = 0.0616 | 725.08 ± 0.53
323.19 K, 25000 kPa, x2 = 0.0616 | 725.73 ± 0.54
333.12 K, 1000 kPa, x2 = 0.0616 | 698.91 ± 0.41
333.12 K, 1000 kPa, x2 = 0.2801 | 693.73 ± 0.41
333.12 K, 2000 kPa, x2 = 0.0616 | 699.91 ± 0.42
333.12 K, 2000 kPa, x2 = 0.2801 | 694.68 ± 0.42
333.12 K, 3000 kPa, x2 = 0.0616 | 700.87 ± 0.42
333.12 K, 3000 kPa, x2 = 0.2801 | 695.65 ± 0.42
333.12 K, 4000 kPa, x2 = 0.0616 | 701.83 ± 0.43
333.12 K, 4000 kPa, x2 = 0.2801 | 696.63 ± 0.43
333.12 K, 5000 kPa, x2 = 0.0616 | 702.77 ± 0.43
333.12 K, 5000 kPa, x2 = 0.2801 | 697.61 ± 0.43
333.12 K, 6000 kPa, x2 = 0.0616 | 703.69 ± 0.43
333.12 K, 6000 kPa, x2 = 0.2801 | 698.55 ± 0.44
333.12 K, 7000 kPa, x2 = 0.0616 | 704.67 ± 0.44
333.12 K, 7000 kPa, x2 = 0.2801 | 699.5 ± 0.44
333.12 K, 8000 kPa, x2 = 0.0616 | 705.56 ± 0.44
333.12 K, 8000 kPa, x2 = 0.2801 | 700.43 ± 0.45
333.12 K, 9000 kPa, x2 = 0.0616 | 706.45 ± 0.45
333.12 K, 9000 kPa, x2 = 0.2801 | 701.36 ± 0.45
333.12 K, 10000 kPa, x2 = 0.0616 | 707.38 ± 0.45
333.12 K, 10000 kPa, x2 = 0.2801 | 702.27 ± 0.46
333.12 K, 10990 kPa, x2 = 0.0616 | 708.26 ± 0.46
333.12 K, 10990 kPa, x2 = 0.2801 | 703.19 ± 0.46
333.12 K, 12000 kPa, x2 = 0.0616 | 709.09 ± 0.46
333.12 K, 12000 kPa, x2 = 0.2801 | 704.1 ± 0.47
333.12 K, 13000 kPa, x2 = 0.0616 | 709.96 ± 0.47
333.12 K, 13000 kPa, x2 = 0.2801 | 704.98 ± 0.47
333.12 K, 14000 kPa, x2 = 0.0616 | 710.8 ± 0.48
333.12 K, 14000 kPa, x2 = 0.2801 | 705.81 ± 0.48
333.12 K, 15000 kPa, x2 = 0.0616 | 711.63 ± 0.48
333.12 K, 15000 kPa, x2 = 0.2801 | 706.72 ± 0.49
333.12 K, 16000 kPa, x2 = 0.0616 | 712.43 ± 0.49
